Laboratory results from the supplement of paper PMC10307832.

How the values were obtained:
Apatinib + Foretinib = compound: N#CC1(c2ccc(NC(=O)c3cccnc3NCc3ccncc3)cc2)CCCC1 [Apatinib] + COc1cc2c(Oc3ccc(NC(=O)C4(C(=O)Nc5ccc(F)cc5)CC4)cc3F)ccnc2cc1OCCCN1CCOCC1 [Foretinib] (partner 0.25 µM); assay: relative viability (nuclei count vs DMSO), 5 days (fraction); higher = more cells survive
Outline: (§1)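 After 5 days of treatment, lung cancer cells in 1536-well plates were fixed and stained in a single step (final 0.05% Triton X-100, 1% formaldehyde, 1 ug/ml Hoechst) and their nuclei counted on 4× images. Treatment had been applied by pin tool the day after seeding as one drug alone or as a fixed anchor-drug dose with five library-drug doses (not always all listed) in √10 steps. Relative viability is the nuclei count of treated wells divided by that of vehicle wells, and values are medians of duplicate plates.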

Metformin + Navitoclax = compound: CN(C)C(=N)NC(=N)N [Metformin] + CC1(C)CCC(c2ccc(Cl)cc2)=C(CN2CCN(c3ccc(C(=O)NS(=O)(=O)c4ccc(N[C@H](CCN5CCOCC5)CSc5ccccc5)c(S(=O)(=O)C(F)(F)F)c4)cc3)CC2)C1 [Navitoclax] (partner 0.5 µM); assay: as above
Outline: as §1

For NCI-H322M, the relative viability (Apatinib + Foretinib; first compound 0.08 µM) was 1.02, the relative viability (Apatinib + Foretinib; first compound 0.253 µM) was 0.857 and the relative viability (Apatinib + Foretinib; first compound 0.8 µM) was 0.944. For the same cell line, the relative viability (Apatinib + Foretinib; first compound 2.53 µM) was 0.984, the relative viability (Apatinib + Foretinib; first compound 8 µM) was 0.88 and the relative viability (Metformin + Navitoclax; first compound 10 µM) was 1.19. For the same cell line, the relative viability (Metformin + Navitoclax; first compound 31.62 µM) was 1.28, the relative viability (Metformin + Navitoclax; first compound 100 µM) was 1.02 and the relative viability (Metformin + Navitoclax; first compound 316.23 µM) was 1.14. The relative viability (Metformin + Navitoclax; first compound 1000 µM) was 1.19.
NCI-H650 was tested, and the relative viability (Apatinib + Foretinib; first compound 0.08 µM) was 1.05, the relative viability (Apatinib + Foretinib; first compound 0.253 µM) was 1.05 and the relative viability (Apatinib + Foretinib; first compound 0.8 µM) was 1.02. The relative viability (Apatinib + Foretinib; first compound 2.53 µM) was 0.871 and the relative viability (Apatinib + Foretinib; first compound 8 µM) was 0.806.
Cell Line NCI-H2126 has a relative viability (Apatinib + Foretinib; first compound 0.08 µM) of 1.28, a relative viability (Apatinib + Foretinib; first compound 0.253 µM) of 1.12 and a relative viability (Apatinib + Foretinib; first compound 0.8 µM) of 1.23. For the same cell line, the relative viability (Apatinib + Foretinib; first compound 2.53 µM) was 0.954, the relative viability (Apatinib + Foretinib; first compound 8 µM) was 0.987 and the relative viability (Metformin + Navitoclax; first compound 10 µM) was 0.788. It also gave a relative viability (Metformin + Navitoclax; first compound 31.62 µM) of 0.834, a relative viability (Metformin + Navitoclax; first compound 100 µM) of 0.842 and a relative viability (Metformin + Navitoclax; first compound 316.23 µM) of 0.771. The relative viability (Metformin + Navitoclax; first compound 1000 µM) was 0.787.
NCI-H1395 was tested, and the relative viability (Apatinib + Foretinib; first compound 0.08 µM) was 1.02, the relative viability (Apatinib + Foretinib; first compound 0.253 µM) was 1.01 and the relative viability (Apatinib + Foretinib; first compound 0.8 µM) was 1.04. For the same cell line, the relative viability (Apatinib + Foretinib; first compound 2.53 µM) was 0.99, the relative viability (Apatinib + Foretinib; first compound 8 µM) was 1.02 and the relative viability (Metformin + Navitoclax; first compound 10 µM) was 1.11. It also gave a relative viability (Metformin + Navitoclax; first compound 31.62 µM) of 1.32, a relative viability (Metformin + Navitoclax; first compound 100 µM) of 1.06 and a relative viability (Metformin + Navitoclax; first compound 316.23 µM) of 0.958. It also gave a relative viability (Metformin + Navitoclax; first compound 1000 µM) of 1.1.
With NCI-H1355 the relative viability (Apatinib + Foretinib; first compound 0.08 µM) was 0.961, the relative viability (Apatinib + Foretinib; first compound 0.253 µM) was 0.9 and the relative viability (Apatinib + Foretinib; first compound 0.8 µM) was 1.07. It also gave a relative viability (Apatinib + Foretinib; first compound 2.53 µM) of 0.9, a relative viability (Apatinib + Foretinib; first compound 8 µM) of 0.786 and a relative viability (Metformin + Navitoclax; first compound 10 µM) of 0.936. It also gave a relative viability (Metformin + Navitoclax; first compound 31.62 µM) of 1.02, a relative viability (Metformin + Navitoclax; first compound 100 µM) of 0.955 and a relative viability (Metformin + Navitoclax; first compound 316.23 µM) of 0.719. The relative viability (Metformin + Navitoclax; first compound 1000 µM) was 0.903.
In the case of NCI-H1792, the relative viability (Metformin + Navitoclax; first compound 31.62 µM) is reported as 0.528, the relative viability (Metformin + Navitoclax; first compound 100 µM) is reported as 0.857 and the relative viability (Metformin + Navitoclax; first compound 316.23 µM) is reported as 0.538. For the same cell line, the relative viability (Metformin + Navitoclax; first compound 1000 µM) was 0.617.
Work on NCI-H596 yielded a relative viability (Apatinib + Foretinib; first compound 0.08 µM) of 0.771, a relative viability (Apatinib + Foretinib; first compound 0.253 µM) of 0.888 and a relative viability (Apatinib + Foretinib; first compound 0.8 µM) of 0.624. For the same cell line, the relative viability (Apatinib + Foretinib; first compound 2.53 µM) was 0.99, the relative viability (Apatinib + Foretinib; first compound 8 µM) was 0.853 and the relative viability (Metformin + Navitoclax; first compound 10 µM) was 0.985. For the same cell line, the relative viability (Metformin + Navitoclax; first compound 31.62 µM) was 1.15, the relative viability (Metformin + Navitoclax; first compound 100 µM) was 1.1 and the relative viability (Metformin + Navitoclax; first compound 316.23 µM) was 0.908. It also gave a relative viability (Metformin + Navitoclax; first compound 1000 µM) of 1.
NCI-H23 was tested, and the relative viability (Apatinib + Foretinib; first compound 0.08 µM) was 1, the relative viability (Apatinib + Foretinib; first compound 0.253 µM) was 1.21 and the relative viability (Apatinib + Foretinib; first compound 0.8 µM) was 1.05. For the same cell line, the relative viability (Apatinib + Foretinib; first compound 2.53 µM) was 1, the relative viability (Apatinib + Foretinib; first compound 8 µM) was 1.1 and the relative viability (Metformin + Navitoclax; first compound 10 µM) was 0.82. The relative viability (Metformin + Navitoclax; first compound 31.62 µM) was 0.902, the relative viability (Metformin + Navitoclax; first compound 100 µM) was 0.805 and the relative viability (Metformin + Navitoclax; first compound 316.23 µM) was 0.839. It also gave a relative viability (Metformin + Navitoclax; first compound 1000 µM) of 0.993.
Cell Line HCC-15 has a relative viability (Apatinib + Foretinib; first compound 0.08 µM) of 1.1, a relative viability (Apatinib + Foretinib; first compound 0.253 µM) of 0.866 and a relative viability (Apatinib + Foretinib; first compound 0.8 µM) of 1. For the same cell line, the relative viability (Apatinib + Foretinib; first compound 2.53 µM) was 0.999, the relative viability (Apatinib + Foretinib; first compound 8 µM) was 0.834 and the relative viability (Metformin + Navitoclax; first compound 10 µM) was 0.686. For the same cell line, the relative viability (Metformin + Navitoclax; first compound 31.62 µM) was 0.726, the relative viability (Metformin + Navitoclax; first compound 100 µM) was 0.719 and the relative viability (Metformin + Navitoclax; first compound 316.23 µM) was 0.618. The relative viability (Metformin + Navitoclax; first compound 1000 µM) was 0.699.
With HCC-44 the relative viability (Metformin + Navitoclax; first compound 10 µM) was 0.99, the relative viability (Metformin + Navitoclax; first compound 31.62 µM) was 1.08 and the relative viability (Metformin + Navitoclax; first compound 100 µM) was 0.957. The relative viability (Metformin + Navitoclax; first compound 316.23 µM) was 0.888 and the relative viability (Metformin + Navitoclax; first compound 1000 µM) was 1.06.
COR-L23 gave a relative viability (Apatinib + Foretinib; first compound 0.08 µM) of 1.03, a relative viability (Apatinib + Foretinib; first compound 0.253 µM) of 0.952 and a relative viability (Apatinib + Foretinib; first compound 0.8 µM) of 0.926. The relative viability (Apatinib + Foretinib; first compound 2.53 µM) was 0.903, the relative viability (Apatinib + Foretinib; first compound 8 µM) was 0.836 and the relative viability (Metformin + Navitoclax; first compound 10 µM) was 0.984. It also gave a relative viability (Metformin + Navitoclax; first compound 31.62 µM) of 0.839, a relative viability (Metformin + Navitoclax; first compound 100 µM) of 0.909 and a relative viability (Metformin + Navitoclax; first compound 316.23 µM) of 0.932. It also gave a relative viability (Metformin + Navitoclax; first compound 1000 µM) of 1.04.
HCC-78 was tested, and the relative viability (Apatinib + Foretinib; first compound 0.08 µM) was 0.6, the relative viability (Apatinib + Foretinib; first compound 0.253 µM) was 0.513 and the relative viability (Apatinib + Foretinib; first compound 0.8 µM) was 0.523. For the same cell line, the relative viability (Apatinib + Foretinib; first compound 2.53 µM) was 0.536, the relative viability (Apatinib + Foretinib; first compound 8 µM) was 0.535 and the relative viability (Metformin + Navitoclax; first compound 10 µM) was 0.994. The relative viability (Metformin + Navitoclax; first compound 31.62 µM) was 1.17, the relative viability (Metformin + Navitoclax; first compound 100 µM) was 1.01 and the relative viability (Metformin + Navitoclax; first compound 316.23 µM) was 1. The relative viability (Metformin + Navitoclax; first compound 1000 µM) was 1.06.
NCI-H1563 showed a relative viability (Apatinib + Foretinib; first compound 0.08 µM) of 0.897, a relative viability (Apatinib + Foretinib; first compound 0.253 µM) of 0.996 and a relative viability (Apatinib + Foretinib; first compound 0.8 µM) of 0.884. It also gave a relative viability (Apatinib + Foretinib; first compound 2.53 µM) of 0.812 and a relative viability (Apatinib + Foretinib; first compound 8 µM) of 0.897.
UMC-11 gave a relative viability (Apatinib + Foretinib; first compound 0.08 µM) of 1.04, a relative viability (Apatinib + Foretinib; first compound 0.253 µM) of 1.09 and a relative viability (Apatinib + Foretinib; first compound 0.8 µM) of 0.935. It also gave a relative viability (Apatinib + Foretinib; first compound 2.53 µM) of 0.939, a relative viability (Apatinib + Foretinib; first compound 8 µM) of 1.03 and a relative viability (Metformin + Navitoclax; first compound 10 µM) of 0.328. For the same cell line, the relative viability (Metformin + Navitoclax; first compound 31.62 µM) was 0.347, the relative viability (Metformin + Navitoclax; first compound 100 µM) was 0.346 and the relative viability (Metformin + Navitoclax; first compound 316.23 µM) was 0.363. For the same cell line, the relative viability (Metformin + Navitoclax; first compound 1000 µM) was 0.384.
With NCI-H3122 the relative viability (Apatinib + Foretinib; first compound 0.08 µM) was 0.995, the relative viability (Apatinib + Foretinib; first compound 0.253 µM) was 0.891 and the relative viability (Apatinib + Foretinib; first compound 0.8 µM) was 0.947. It also gave a relative viability (Apatinib + Foretinib; first compound 2.53 µM) of 1.06, a relative viability (Apatinib + Foretinib; first compound 8 µM) of 0.918 and a relative viability (Metformin + Navitoclax; first compound 10 µM) of 0.937. The relative viability (Metformin + Navitoclax; first compound 31.62 µM) was 0.955, the relative viability (Metformin + Navitoclax; first compound 100 µM) was 0.969 and the relative viability (Metformin + Navitoclax; first compound 316.23 µM) was 0.933. The relative viability (Metformin + Navitoclax; first compound 1000 µM) was 0.89.
With BEN the relative viability (Apatinib + Foretinib; first compound 0.08 µM) was 0.477, the relative viability (Apatinib + Foretinib; first compound 0.253 µM) was 0.548 and the relative viability (Apatinib + Foretinib; first compound 0.8 µM) was 0.668. For the same cell line, the relative viability (Apatinib + Foretinib; first compound 2.53 µM) was 0.558, the relative viability (Apatinib + Foretinib; first compound 8 µM) was 0.726 and the relative viability (Metformin + Navitoclax; first compound 10 µM) was 0.0532. The relative viability (Metformin + Navitoclax; first compound 31.62 µM) was 0.0708, the relative viability (Metformin + Navitoclax; first compound 100 µM) was 0.0914 and the relative viability (Metformin + Navitoclax; first compound 316.23 µM) was 0.0748. The relative viability (Metformin + Navitoclax; first compound 1000 µM) was 0.0712.
For LU99A, the relative viability (Apatinib + Foretinib; first compound 0.08 µM) was 0.88, the relative viability (Apatinib + Foretinib; first compound 0.253 µM) was 0.891 and the relative viability (Apatinib + Foretinib; first compound 0.8 µM) was 0.769. The relative viability (Apatinib + Foretinib; first compound 2.53 µM) was 0.78, the relative viability (Apatinib + Foretinib; first compound 8 µM) was 0.682 and the relative viability (Metformin + Navitoclax; first compound 10 µM) was 0.693. It also gave a relative viability (Metformin + Navitoclax; first compound 31.62 µM) of 0.743, a relative viability (Metformin + Navitoclax; first compound 100 µM) of 0.677 and a relative viability (Metformin + Navitoclax; first compound 316.23 µM) of 0.814. The relative viability (Metformin + Navitoclax; first compound 1000 µM) was 0.749.
EKVX showed a relative viability (Apatinib + Foretinib; first compound 0.08 µM) of 0.71, a relative viability (Apatinib + Foretinib; first compound 0.253 µM) of 0.872 and a relative viability (Apatinib + Foretinib; first compound 0.8 µM) of 0.951. For the same cell line, the relative viability (Apatinib + Foretinib; first compound 2.53 µM) was 0.615, the relative viability (Apatinib + Foretinib; first compound 8 µM) was 0.775 and the relative viability (Metformin + Navitoclax; first compound 10 µM) was 0.681. The relative viability (Metformin + Navitoclax; first compound 31.62 µM) was 0.889, the relative viability (Metformin + Navitoclax; first compound 100 µM) was 0.968 and the relative viability (Metformin + Navitoclax; first compound 316.23 µM) was 0.779. It also gave a relative viability (Metformin + Navitoclax; first compound 1000 µM) of 0.948.
